Laboratory results published in US10913738B2 (BRISTOL-MYERS SQUIBB COMPANY, priority 2017, dated 2021).
Read-outs that look alike come from different tables or passages of the source.

How the values were obtained:
[1] = test system: MLKL phosphorylation in HT29-L23 human colorectal adenocarcinoma cells; assay: MLKL Phosphorylation High-Content Assay; type: cell-based; conditions: Homo sapiens
In short: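 IC50 and Ymax obtained by 4-parameter logistic fitting of MLKL phosphorylation, measured as mean circ-ring average intensity ratio from high-content images. Staining used an anti-phospho-S358 MLKL antibody overnight at 4° C., following six-hour cell incubation at 37° C.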

[2] = target: T1, His-GST-TVMV-hRIPK1(1-324) (Homo sapiens, UniProt Q13546); assay: RIPK1 HTRF Binding Assay
T1 construct: The coding region of human RIPK1(1-324) flanked by NdeI site at 5′ end; made in house; host or cells: Spodoptera frugiperda (Sf9) insect cells, baculovirus
T1 sequence (Q13546 1-324): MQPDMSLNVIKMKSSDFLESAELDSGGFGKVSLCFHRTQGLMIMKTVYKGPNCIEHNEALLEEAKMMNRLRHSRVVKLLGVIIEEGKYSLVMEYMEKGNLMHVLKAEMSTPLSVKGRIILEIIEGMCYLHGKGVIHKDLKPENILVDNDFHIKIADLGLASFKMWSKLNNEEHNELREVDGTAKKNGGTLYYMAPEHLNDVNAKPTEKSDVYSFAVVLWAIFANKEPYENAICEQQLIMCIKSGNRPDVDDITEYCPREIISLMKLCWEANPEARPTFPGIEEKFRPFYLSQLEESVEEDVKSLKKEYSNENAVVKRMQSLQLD

[3] = x marks IC50 class 20-200 nM, read-out: pMLKL cell activity 20-200 nM
[4] = x marks IC50 class 20-200 nM, read-out: RIPK1 HTRF binding 20-200 nM
[5] = x marks IC50 class <20 nM, read-out: RIPK1 HTRF binding <20 nM
[6] = x marks IC50 class <20 nM, read-out: pMLKL cell activity <20 nM
[7] = x marks IC50 class >200 nM, read-out: pMLKL cell activity >200 nM

| SMILES | IC50 [1, 3] [nM] | IC50 [2, 4] [nM] | IC50 [2, 5] [nM] | IC50 [1, 6] [nM] | IC50 [1, 7] [nM] |
| --- | --- | --- | --- | --- | --- |
| [2H]C([2H])([2H])Oc1ncc(-c2ccn3nc(N)nc3c2)cc1C(=O)N[C@H](C)c1cc(OC(F)(F)F)ccc1F [Example 285, (R)-5-(2-amino-[1,2,4]triazolo[1,5-a]pyridin-7-yl)-N-(1-(2-fluoro-5-(trifluoromethoxy)phenyl)ethyl)-2-(methoxy-d3)nicotinamide] | 20 to 200 | 20 to 200 | – | – | – |
| [2H]C([2H])([2H])[C@@H](NC(=O)c1cc(-c2ccn3nc(N)nc3c2)c(C)nc1C)c1cc(OC(F)(F)F)ccc1F [Example 286, (R)-5-(2-amino-[1,2,4]triazolo[1,5-a]pyridin-7-yl)-N-(1-(2-fluoro-5-(trifluoromethoxy)phenyl)ethyl-2,2,2-d3)-2,6-dimethylnicotinamide] | 20 to 200 | – | < 20 | – | – |
| [2H]C([2H])(Oc1c(F)cc(F)cc1CNC(=O)c1cc(-c2ccn3nc(N)nc3c2)c(C)nc1C)C1CC1 [Example 287, 5-(2-amino-[1,2,4]triazolo[1,5-a]pyridin-7-yl)-N-(2-(cyclopropylmethoxy-d2)-3,5-difluorobenzyl)-2,6-dimethylnicotinamide] | – | – | < 20 | < 20 | – |
| [2H]C([2H])(NC(=O)c1cc(-c2ccn3nc(N)nc3c2)c(C)nc1C)c1cc(C(F)(F)F)ccc1F [Example 288, 5-(2-amino-[1,2,4]triazolo[1,5-a]pyridin-7-yl)-N-((2-fluoro-5-(trifluoromethyl)phenyl)methyl-d2)-2,6-dimethylnicotinamide] | 20 to 200 | – | < 20 | – | – |
| [2H]C([2H])([2H])[C@@H](NC(=O)c1cc(-c2ccn3nc(N)nc3c2)c(C)nc1C)c1cc(C(F)(F)F)ccc1F [Example 289, (R)-5-(2-amino-[1,2,4]triazolo[1,5-a]pyridin-7-yl)-N-(l-(2-fluoro-5-(trifluoromethyl)phenyl)ethyl-2,2,2-d3)-2,6-dimethylnicotinamide] | 20 to 200 | – | < 20 | – | – |
| Cc1nc(C)c(-c2ccn3nc(N)nc3c2)cc1C(=O)NCc1cc(OCC2CC2)ccc1F [Example 290, 5-(2-amino-[1,2,4]triazolo[1,5-a]pyridin-7-yl)-N-(5-(cyclopropylmethoxy)-2-fluorobenzyl)-2,6-dimethylnicotinamide] | 20 to 200 | – | < 20 | – | – |
| Cc1nc(C)c(-c2ccn3nc(N)nc3c2)cc1C(=O)NCc1c(F)cccc1OCC(F)(F)F [Example 291, 5-(2-amino-[1,2,4]triazolo[1,5-a]pyridin-7-yl)-N-(2-fluoro-6-(2,2,2-trifluoroethoxy)benzyl)-2,6-dimethylnicotinamide] | 20 to 200 | 20 to 200 | – | – | – |
| Cc1nc(C)c(-c2ccn3nc(N)nc3c2)cc1C(=O)NCc1cc(F)ccc1OCC(F)(F)F [Example 292, 5-(2-amino-[1,2,4]triazolo[1,5-a]pyridin-7-yl)-N-(5-fluoro-2-(2,2,2-trifluoroethoxy)benzyl)-2,6-dimethylnicotinamide] | 20 to 200 | 20 to 200 | – | – | – |
| Cc1nc(C)c(-c2ccn3nc(N)nc3c2)cc1C(=O)NCc1cccc(OCC(F)(F)F)c1 [Example 293, 5-(2-amino-[1,2,4]triazolo[1,5-a]pyridin-7-yl)-2,6-dimethyl-N-(3-(2,2,2-trifluoroethoxy)benzyl)nicotinamide] | 20 to 200 | 20 to 200 | – | – | – |
| Cc1nc(C)c(-c2ccn3nc(N)nc3c2)cc1C(=O)NCc1ccccc1OCC(F)(F)F [Example 294, 5-(2-amino-[1,2,4]triazolo[1,5-a]pyridin-7-yl)-2,6-dimethyl-N-(2-(2,2,2-trifluoroethoxy)benzyl)nicotinamide] | – | 20 to 200 | – | – | > 200 |
| Cc1nc(C)c(-c2ccn3nc(N)nc3c2)cc1C(=O)NCc1cc(F)cc(F)c1OC1CCOC(C)C1 (centres unmarked) [Example 296, 5-(2-amino-[1,2,4]triazolo[1,5-a]pyridin-7-yl)-N-(3,5-difluoro-2-((2-methyltetrahydro-2H-pyran-4-yl)oxy)benzyl)-2,6-dimethylnicotinamide] | 20 to 200 | 20 to 200 | – | – | – |
| Cc1nc(C)c(-c2ccn3nc(N)nc3c2)cc1C(=O)NCc1cc(F)cc(F)c1OC1CC(C)OC(C)C1 (centres unmarked) [Example 297, 5-(2-amino-[1,2,4]triazolo[1,5-a]pyridin-7-yl)-N-(2-((2,6-dimethyltetrahydro-2H-pyran-4-yl)oxy)-3,5-difluorobenzyl)-2,6-dimethylnicotinamide] | 20 to 200 | 20 to 200 | – | – | – |
| Cc1ncc(-c2ccn3nc(N)nc3c2)cc1C(=O)NCc1cc(F)ccc1-c1ccn(C)n1 [Example 298, 5-(2-amino-[1,2,4]triazolo[1,5-a]pyridin-7-yl)-N-(5-fluoro-2-(1-methyl-1H-pyrazol-3-yl)benzyl)-2-methylnicotinamide] | – | 20 to 200 | – | – | > 200 |
| [2H]C([2H])([2H])[C@@H](NC(=O)c1cc(-c2ccn3nc(N)nc3c2)cnc1C)c1cc(OC(F)(F)F)ccc1F [Example 299, (R)-5-(2-amino-[1,2,4]triazolo[1,5-a]pyridin-7-yl)-N-(1-(2-fluoro-5-(trifluoromethoxy)phenyl)ethyl-2,2,2-d3)-2-methylnicotinamide] | – | – | < 20 | < 20 | – |
| [2H]C([2H])([2H])[C@H](NC(=O)c1cc(-c2ccn3nc(N)nc3c2)cnc1C)c1cc(OC(F)(F)F)ccc1F [Example 300, (S)-5-(2-amino-[1,2,4]triazolo[1,5-a]pyridin-7-yl)-N-(1-(2-fluoro-5-(trifluoromethoxy)phenyl)ethyl-2,2,2-H3)-2-methylnicotinamide] | – | – | < 20 | < 20 | – |
| Cc1ncc(-c2ccn3nc(N)nc3c2)cc1C(=O)NCc1cc(F)cc(F)c1OCC(C)C [Example 301, 5-(2-amino-[1,2,4]triazolo[1,5-a]pyridin-7-yl)-N-(3,5-difluoro-2-isobutoxybenzyl)-2-methylnicotinamide] | 20 to 200 | – | < 20 | – | – |
| [2H]C([2H])([2H])[C@H](NC(=O)c1cc(-c2ccn3nc(N)nc3c2)cnc1C)c1cc(C(F)(F)F)ccc1F [Example 302, (S)-5-(2-amino-[1,2,4]triazolo[1,5-a]pyridin-7-yl)-N-(1-(2-fluoro-5-(trifluoromethyl)phenyl)ethyl-2,2,2-H3)-2-methylnicotinamide] | 20 to 200 | – | < 20 | – | – |
| [2H]C([2H])([2H])[C@@H](NC(=O)c1cc(-c2ccn3nc(N)nc3c2)cnc1C)c1cc(C(F)(F)F)ccc1F [Example 303, (R)-5-(2-amino-[1,2,4]triazolo[1,5-a]pyridin-7-yl)-N-(1-(2-fluoro-5-(trifluoromethyl)phenyl)ethyl-2,2,2-H3)-2-methylnicotinamide] | 20 to 200 | – | < 20 | – | – |
| Cc1ncc(-c2ccn3nc(N)nc3c2)cc1C(=O)NCc1c(OCC2CC2)ccc(F)c1F [Example 304, 5-(2-amino-[1,2,4]triazolo[1,5-a]pyridin-7-yl)-N-(6-(cyclopropylmethoxy)-2,3-difluorobenzyl)-2-methylnicotinamide] | 20 to 200 | – | < 20 | – | – |
| Cc1ncc(-c2ccn3nc(N)nc3c2)cc1C(=O)NCc1ccccc1OCC(C)C [Example 305, 5-(2-amino-[1,2,4]triazolo[1,5-a]pyridin-7-yl)-N-(2-isobutoxybenzyl)-2-methylnicotinamide] | 20 to 200 | 20 to 200 | – | – | – |
| Cc1ncc(-c2ccn3nc(N)nc3c2)cc1C(=O)NCc1c(F)cccc1OCC(F)(F)F [Example 306, 5-(2-amino-[1,2,4]triazolo[1,5-a]pyridin-7-yl)-N-(2-fluoro-6-(2,2,2-trifluoroethoxy)benzyl)-2-methylnicotinamide] | 20 to 200 | 20 to 200 | – | – | – |
| [2H]C([2H])(NC(=O)c1cc(-c2ccn3nc(N)nc3c2)cnc1C)c1cc(C(F)(F)F)ccc1F [Example 307, 5-(2-amino-[1,2,4]triazolo[1,5-a]pyridin-7-yl)-N-((2-fluoro-5-(trifluoromethyl)phenyl)methyl-H2)-2-methylnicotinamide] | 20 to 200 | – | < 20 | – | – |
| Cc1ncc(-c2ccn3nc(N)nc3c2)cc1C(=O)NCc1cc(F)cc(F)c1OC1CC1 [Example 308, 5-(2-amino-[1,2,4]triazolo[1,5-a]pyridin-7-yl)-N-(2-cyclopropoxy-3,5-difluorobenzyl)-2-methylnicotinamide] | 20 to 200 | 20 to 200 | – | – | – |
| Cc1ncc(-c2ccn3nc(N)nc3c2)cc1C(=O)NCc1cc(F)ccc1OCC(F)(F)F [Example 309, 5-(2-amino-[1,2,4]triazolo[1,5-a]pyridin-7-yl)-N-(5-fluoro-2-(2,2,2-trifluoroethoxy)benzyl)-2-methylnicotinamide] | – | – | < 20 | – | > 200 |
| [2H]C([2H])([2H])[C@H](NC(=O)c1cc(-c2ccn3nc(N)nc3c2)cnc1C)c1cccc(OC(F)(F)F)c1 [Example 310, (S)-5-(2-amino-[1,2,4]triazolo[1,5-a]pyridin-7-yl)-2-methyl-N-(1-(3-(trifluoromethoxy)phenyl)ethyl-2,2,2-H3)nicotinamide] | – | 20 to 200 | – | – | > 200 |
